PMC8287724, “Reducing Auditory Nerve Excitability by Acute Antagonism of Ca^2+-Permeable AMPA Receptors” (Frontiers in Synaptic Neuroscience, 2021)
Several values for one entry are separate records, joined by “and”; a condition that tells them apart may be missing. Equal entries are not always repeated. Where two headings read alike, the source gives them in different places.

Columns and labels:
[1] = Drug levels in blood, perilymph and CSF after IP injection (LC/MS); format: in vivo, guinea pig; details: for Kp / half-life: NIH-strain, pigmented, guinea pig; for Kp: ip; for half-life: blood, in vivo, IP injection: IEM-1460 13.5 mg/kg, IEM-1925 8 mg/kg, estimated from PK data, read-out: elimination half-life in blood
Protocol: After at least 30 min of baseline data, 1 mL of Lactated Ringer's was injected into the peritoneal space of the guinea pig as a vehicle control. Then, 13.5 mg/kg IEM-1460 or 8 mg/kg IEM-1925 in Lactated Ringer's was injected into the peritoneal space of the guinea pig. The entire experiment took ~3 h to complete: 1 h for anesthetic induction and surgery, 30 min for sound calibration and CAP threshold measurements, and 2 h for drug delivery, DPOAE and CAP measurements. After collection of perilymph and CSF, the animal was euthanized via saturated KCl delivered directly into the jugular vein.
General surgical scissors were used to clip the toenail at a 45° angle to collect blood with a premarked glass capillary tube during the baseline period and after drug injection. The exact volume was determined by measurement of the fluid meniscus in a calibrated capillary tube. […] Complete details used to perform apical fluid sampling are presented elsewhere and are only briefly provided here (Mynatt et al., [2006]). Similar to the apical cochlear fenestration used to deliver drugs (described above), the mucosa on the cochlea was cleared from two apical turns using a small cotton swab, and the bone at the apex was allowed to dry. A droplet of thin cyanoacrylate adhesive was applied and cup formed over the apex with silicone adhesive. A small perforation (50–100 μm diameter) was then made in the bone over scala vestibuli at the apex using a 30° pick. Upon perforation, fluid immediately started emerging, driven by intralabyrinthine pressure from CSF, and formed a bead within the hydrophobic silicone cup. A calibrated 5 μL capillary micropipette (VWR #5342-706, S. Plainfield, NJ) was held by hand in contact with the fluid at the apex, so that fluid was drawn into the capillary in ~30 s. The exact volume was determined by measurement of the fluid meniscus. Perilymph from the opposite ear was sampled prior to euthanizing the animal, then ~2 μL of CSF was aspirated by inserting a micropipette through the dura mater into the cisterna magna. After the fluid meniscus from the capillary tube was measured, the capillary tube was then flushed with 25.0 μL 50:50 methanol-water solvent to ensure that all the sample was collected.
The concentration of IEM-1460 in perilymph, blood, and CSF was analyzed using LC-MS (Confluence Life Sciences, St. Louis, MO). LC-MS-grade acetonitrile, LC-grade methanol, formic acid, sodium hydroxide 0.1 M, perfluoroheptanoic acid, formic acid, and hydrochloric acid were purchased from Sigma-Aldrich (USA). Deionized water (R > 18 MΩ/cm, TOC <10 ppb) was used throughout all these experiments. IEM-1460 and IEM-1925 were purchased from Tocris Bioscience (Bristol, UK). A 10 mM stock solution was made for both IEM-1460 and IEM-1925 in 50% aqueous methanol. For calibration of the specific compound concentration in the tested matrix (i.e., plasma or CSF/perilymph), a set of standard solutions were prepared by diluting concentrated stock solutions with 50% aqueous methanol into guinea pig plasma matrix or artificial perilymph (in mM: 127.5 NaCl, 3.5 KCl, 25 NaHCO3, 1.3 CaCl2, 1.2 MgCl2, 0.75 NaH2PO4, and 11 glucose) to have a set of standards from 1 to 300 ng/mL. […] Calibration standard samples using verapamil were prepared for each batch of samples ranging from 1 to 300 ng/mL and injected at both the beginning and end of the sample sequence. The methodology for LC-MS for blood has previously been described (Da Silva et al., [2016]; Guiraud et al., [2017]). Separation and analysis were performed on a LC instrument (Exion LC AD, AB SCIEX, USA) coupled to a Sciex QTRAP5500 with TurboV Ion Source (SCIEX, Concord, ON, Canada) equipped with a heated electrospray ionization (H-ESI) source. Chromatographic separation was obtained using a gradient elution on a reversed-phase Kinetex F5 (Phenomenex, Aschaffenburg, Germany) column (2.1 × 50 mm), packed with 1.7 μm diameter particles. […]

A1 adenosine GPCR = target: T1, A1 adenosine GPCR (Homo sapiens, UniProt P30542); experiment: Radioligand binding assay, A1 receptor (transfected CHO cells); details: antagonist 1 μM
T1 construct: host or cells: CHO cells
Protocol: Binding assays were conducted to evaluate the affinity of test compounds IEM-1460 and IEM-1925 (Eurofins Scientific, Inc.) for 15 targets: the human alpha-1 adrenergic (A1) receptor, histaminergic (H)-2 and−3 receptors, and muscarinic acetylcholine receptors-1 to−5 in transfected CHO cells by radioligand binding. The neuronal α4β2 and neuronal α7 cholinergic acetylcholine receptors were tested in transfected SH-SY5Y cells. The histaminergic-1 and−4 receptors were tested in transfected HEK-293 cells. Ion channel testing for AMPA and N-methyl-D-aspartate (NMDA) was performed in cells from the rat cerebral cortex. […] Non-specific binding was determined in the presence of 1 μM of DCPX. […] The filters were dried and then counted for radioactivity in a scintillation counter (Topcount, Packard) using a scintillation cocktail (Microscint 0, Packard). The results are expressed as a percent inhibition of the control radioligand specific binding: 100-[(measured specific binding)/(control specific binding) × 100]. […]
We tested the metabolic stability of the compounds with in vitro liver microsome stability assays (Table 1, right). […] We evaluated the compounds for potential toxicity with assays that test for inhibition of off-target ion channels and receptors. […]

T1 sequence (P30542 whole entry): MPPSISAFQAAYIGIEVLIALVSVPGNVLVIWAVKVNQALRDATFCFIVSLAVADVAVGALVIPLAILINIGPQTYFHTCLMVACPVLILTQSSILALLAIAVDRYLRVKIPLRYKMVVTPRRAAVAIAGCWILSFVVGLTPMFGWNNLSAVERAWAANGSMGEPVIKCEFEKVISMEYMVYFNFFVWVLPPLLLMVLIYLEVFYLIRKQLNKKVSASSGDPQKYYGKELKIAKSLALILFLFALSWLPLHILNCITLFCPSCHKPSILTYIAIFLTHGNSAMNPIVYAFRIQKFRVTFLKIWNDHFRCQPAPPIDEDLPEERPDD

Compound	time to plateau of blood plasma concentration ([1]; IP 13.5 mg/kg)	concentration in blood plasma at plateau ([1]; IP 13.5 mg/kg, average, N = 3)	concentration in blood ([1]; IP 13.5 mg/kg, converted from 7 μg/mL)	perilymph level as % of blood level ([1]; IP 13.5 mg/kg, ~2 h after injection, N = 3, 13.5 mg/kg)	concentration in perilymph ([1]; IP 13.5 mg/kg, ~2 h after injection, from blood level and perilymph/blood ratio, 13.5 mg/kg)	Kp ([1]; CSF relative to blood, 13.5 mg/kg, IP 13.5 mg/kg, ~2 h after injection, N = 3, read-out: CSF level as % of blood level)	half-life [1]	Kp ([1]; perilymph relative to blood, 13.5 mg/kg, IP 13.5 mg/kg, ~2 h after injection, N = 3, read-out: perilymph level as % of blood level)	Mean% inhibition (N = 2) of radioligand binding (A1 adenosine GPCR)	LC/MS detection in perilymph or CSF ([1]; IP 8 mg/kg)	levels detected in blood ([1]; IP 8 mg/kg)
C[N+](C)(C)CCCCCNCC12CC3CC(CC(C3)C1)C2 [IEM-1460]	≤ 30 min	~ 7 μg/mL	23.8 µM	17–45%	4–11 μM and ~ 7 μM	0.08 to 0.23	1.97 h	~0.3	<1%	–	–
NCCCCCNC1(c2ccccc2)CCCCC1 [IEM-1925]	–	–	–	–	–	–	1.13 h	–	<1%	did not detect significant	Very low levels
